Measured values from patent US7071180B2, “Certain arylaliphatic and heteroaryl-aliphatic piperazinyl pyrazines and their use in the treatment of serotonin-related diseases” (Biovitrum AB, priority 1999, dated 2006).
Structures can show the parent of a compound that is named as a salt.

melting point | SMILES
138 to 140 °C | Nc1nc2c(OCCOc3nccnc3N3CCNCC3)cccc2o1 (as salt: fumarate) [Example 21, 4-(2-{[3-(1-piperazinyl)-2-pyrazinyl]oxy}ethoxy)-1,3-benzoxazol-2-amine]
154 °C | CN(CCOc1ccccc1)c1nccnc1N1CCNCC1 (as salt: fumarate) [Example 47, N-Methyl-N-(2-phenoxyethyl)-3-(1-piperazinyl)-2-pyrazinamine]
172 to 176 °C | COc1ccc(F)cc1OCCOc1nccnc1N1CCNCC1 (as salt: fumarate) [Example 100, 2-[2-(5-Fluoro-2-methoxyphenoxy)ethoxy]-3-(1-piperazinyl)pyrazine]
125 to 130 °C | Fc1cccc(OCCOc2nccnc2N2CCNCC2)c1F (as salt: fumarate) [Example 105, 2-[2-(2,3-Difluorophenoxy)ethoxy]-3-(1-piperazinyl)pyrazine]
158 to 159 °C | Fc1cc(F)c(F)c(OCCOc2nccnc2N2CCNCC2)c1 (as salt: fumarate) [Example 106, 2-[2-(2,3,5-Trifluorophenoxy)ethoxy]-3-(1-piperazinyl)pyrazine]
78 to 81 °C | c1ccc(Nc2cccc(OCCOc3nccnc3N3CCNCC3)c2)cc1 (as salt: fumarate) [Example 107, N-Phenyl-3-(2-{[3-(1-piperazinyl)-2-pyrazinyl]oxy}ethoxy)aniline]
178 to 179 °C | c1ccc2c(c1)OC(COc1nccnc1N1CCNCC1)CS2 (stereo not shown) (as salt: fumarate) [Example 132, 2-(2,3-Dihydro-1,4-benzoxathiin-2-ylmethoxy)-3-(1-piperazinyl)pyrazine]
115 °C (dec.) | Cc1ccc(OCCOc2nccnc2N2CCNC[C@H]2C)cn1 (as salt: fumarate) [Example 176, (2R)-2-Methyl-1-(3-{2-[(6-methyl-3-pyridinyl)oxy]ethoxy}-2-pyrazinyl)piperazine]
125 to 127 °C | CCC1CNCCN1c1nccnc1OCCOc1cccnc1 (stereo not shown) (as salt: fumarate) [Example 178, 2-Ethyl-1-{3-[2-(3-pyridinyloxy)ethoxy]-2-pyrazinyl}piperazine]
157 °C (dec.) | C[C@@H]1CNC[C@H](C)N1c1nccnc1OCCOc1cccnc1 (as salt: fumarate) [Example 179, cis-2,6-Dimethyl-1-{3-[2-(3-pyridinyloxy)ethoxy]-2-pyrazinyl}piperazine]
202 °C | Brc1ncccc1OCCOc1nccnc1N1CCNCC1 (as salt: fumarate) [Example 195, 2-{2-[(2-Bromo-3-pyridinyl)oxy]ethoxy}-3-(1-piperazinyl)pyrazine]
154 °C | C[C@@H]1CNCCN1c1nccnc1OCCOc1cccnc1Br (as salt: fumarate) [Example 196, (2R)-1-(3-{2-[(2-Bromo-3-pyridinyl)oxy]ethoxy}-2-pyrazinyl)-2-methylpiperazine]
201 °C | CSc1ncccc1OCCOc1nccnc1N1CCNCC1 (as salt: fumarate) [Example 197, 2-(2-{[2-(Methylsulfanyl)-3-pyridinyl]oxy}ethoxy)-3-(1-piperazinyl)pyrazine]
179 °C | CSc1ncccc1OCCOc1nccnc1N1CCNC[C@H]1C (as salt: fumarate) [Example 198, (2R)-2-Methyl-1-[3-(2-{[2-(methylsulfanyl)-3-pyridinyl]oxy}ethoxy)-2-pyrazinyl]piperazine]
186 °C | CCOc1ncccc1OCCOc1nccnc1N1CCNCC1 (as salt: fumarate) [Example 199, 2-{2-[(2-Ethoxy-3-pyridinyl)oxy]ethoxy}-3-(1-piperazinyl)pyrazine]
186 to 188 °C | c1ccc2c(c1)CCC(COc1nccnc1N1CCNCC1)C2 (stereo not shown) (as salt: fumarate) [Example 207, 3-(1-piperazinyl)-2-pyrazinyl 1,2,3,4-tetrahydro-2-naphthalenylmethyl ether]
